# Data from ChEMBL document CHEMBL5154941, “Structural Modifications of Nimodipine Lead to Novel PDE1 Inhibitors with Anti-pulmonary Fibrosis Effects” (J Med Chem, 2022).
# Active and inactive are the calls of the source. The rule behind the calls is not given here.
# What was measured:
# [1] = biological target: Dual specificity calcium/calmodulin-dependent 3',5'-cyclic nucleotide phosphodiesterase 1C (Homo sapiens, UniProt Q14123); test: Inhibition of PDE1C (147 to 531 residues) (unknown origin) expressed in Escherichia coli BL21 at 1000 nM [3H]-cGMP as substrate measured for 15 mins by liquid scintillation counter method relative to control
# Dual specificity calcium/calmodulin-dependent 3',5'-cyclic nucleotide phosphodiesterase 1C, sequence (Q14123 whole entry, the tested form may be a part): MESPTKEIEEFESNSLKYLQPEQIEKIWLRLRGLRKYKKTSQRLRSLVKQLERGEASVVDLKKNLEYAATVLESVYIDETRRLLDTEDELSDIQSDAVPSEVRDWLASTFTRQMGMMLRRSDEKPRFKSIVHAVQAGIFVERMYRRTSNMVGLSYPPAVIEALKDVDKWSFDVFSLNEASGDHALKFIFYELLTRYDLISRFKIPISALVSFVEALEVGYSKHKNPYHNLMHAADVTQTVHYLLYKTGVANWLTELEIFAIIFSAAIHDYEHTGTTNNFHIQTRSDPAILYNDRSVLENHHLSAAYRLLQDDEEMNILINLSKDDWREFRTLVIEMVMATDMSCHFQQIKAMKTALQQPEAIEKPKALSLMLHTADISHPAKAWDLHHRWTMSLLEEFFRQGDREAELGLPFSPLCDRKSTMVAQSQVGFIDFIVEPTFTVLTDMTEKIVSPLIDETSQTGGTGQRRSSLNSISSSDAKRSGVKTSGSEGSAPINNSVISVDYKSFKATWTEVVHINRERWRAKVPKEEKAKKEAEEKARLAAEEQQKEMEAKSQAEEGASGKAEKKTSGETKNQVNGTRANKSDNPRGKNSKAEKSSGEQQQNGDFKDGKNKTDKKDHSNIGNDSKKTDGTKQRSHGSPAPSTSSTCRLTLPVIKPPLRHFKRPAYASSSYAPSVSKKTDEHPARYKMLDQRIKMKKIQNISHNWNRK
# [2] = test system: Rattus norvegicus; test: Antifibrotic activity in bleomycin-induced Sprague-Dawley rat lung fibrosis model assessed as decrease in collagen I level at 150 mg/kg, po administered daily for 28 days by Western blot analysis; type: functional, organism-based; conditions: time 28.0 day
# [3] = test system: Rattus norvegicus; test: Antifibrotic activity in bleomycin-induced Sprague-Dawley rat lung fibrosis model assessed as decrease in alpha-smooth muscle actin level at 150 mg/kg, po administered daily for 28 days by Western blot analysis; type: functional, organism-based; conditions: time 28.0 day
# [4] = test system: Rattus norvegicus; test: Antifibrotic activity in bleomycin-induced Sprague-Dawley rat lung fibrosis model assessed as decrease in fibronectin level at 150 mg/kg, po administered daily for 28 days by Western blot analysis; type: functional, organism-based; conditions: time 28.0 day
Compound,inhibition [1] [%],Activity [2],Activity [3],Activity [4]
COC(=O)C1=C(C)NC(C)=C(C(=O)OC)C1c1ccc(F)c(F)c1,42,,,
COC(=O)C1=C(C)NC(C)=C(C(=O)OC)C1c1ccc(OC)c(OC)c1,43,,,
Cc1ccc(=O)n(-c2ccccc2)c1,,Active,Active,Active

# Second part, led by results:
inhibition [1] [%],Compound,Activity [2],Activity [3],Activity [4]
7,COC(=O)C1=C(C)NC(C)=C(C(=O)OC)C1c1cccc(OC)c1,,,
25,COC(=O)C1=C(C)NC(C)=C(C(=O)OC)C1c1cccc(C#N)c1,,,
